Consider 31 compounds from US8822503B2, “2-pyridone compounds” (Taisho Pharmaceutical Co., Ltd, priority 2009, dated 2014).

One may read the EC50 as the concentration needed to bring the measured effect to its halfway point. A low value points to a more potent agent.

The assay addresses T1, human liver GK (Homo sapiens, UniProt P35557).
T1 construct: GST (glutathione S-transferase) (N); made in house; host or cells: E. coli
T1 sequence (P35557 1-466 isoform P35557-2): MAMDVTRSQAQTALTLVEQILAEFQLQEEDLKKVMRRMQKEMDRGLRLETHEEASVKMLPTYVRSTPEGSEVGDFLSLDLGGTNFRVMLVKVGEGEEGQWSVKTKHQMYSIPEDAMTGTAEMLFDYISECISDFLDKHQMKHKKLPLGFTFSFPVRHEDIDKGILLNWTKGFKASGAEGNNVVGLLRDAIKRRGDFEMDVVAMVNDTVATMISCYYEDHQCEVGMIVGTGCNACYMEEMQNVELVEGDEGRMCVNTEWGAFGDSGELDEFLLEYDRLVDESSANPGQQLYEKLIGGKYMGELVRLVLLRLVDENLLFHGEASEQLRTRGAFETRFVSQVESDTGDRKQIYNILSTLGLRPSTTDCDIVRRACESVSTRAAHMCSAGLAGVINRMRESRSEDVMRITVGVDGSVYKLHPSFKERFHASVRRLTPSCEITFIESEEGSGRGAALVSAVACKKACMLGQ
In words: GK activation test. The assay is classed as biochemical. The note with it: test compound concentration needed to activate 50% of maximum activation ability; 4 mM 14C-labeled glucose, 2 mM ATP, room temperature, 20 minutes. An outline of the steps:
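GST-tagged human liver GK from E. coli (0.24 μg/well) with 4 mM 14C-glucose, 2 mM ATP in Hepes-KOH pH 7.1, KCl, MgCl2, DTT, 1% DMSO, 20 min room temperature. Labeled glucose 6-phosphate captured on anion resin, eluted and counted. EC50 = concentration giving half of maximal activation.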
With `Cc1ccc(/C(=C/[C@H]2CCC(=O)C2)c2ccc(S(=O)(=O)CCCO)c(Cl)c2)[nH]c1=O` [Example 1-74, 6-{(E)-1-{3-Chloro-4-[(3-hydroxypropyl)sulfonyl]phenyl}-2-[(1S)-3-oxocyclopentyl]ethenyl}-3-methylpyridin-2(1H)-one], the half-maximal effective concentration (EC50) fell in the range of 500 to 3000 nM.

Compound `CC(C)(C)c1ccc(/C(=C\CN2CCCCCCC2=O)c2ccc(Cl)c(=O)[nH]2)cc1` [Example 6-18, 1-[(2E)-3-(4-tert-Butylphenyl)-3-(5-chloro-6-oxo-1,6-dihydropyridin-2-yl)prop-2-en-1-yl]azocan-2-one] had a concentration for a half-maximal effect (EC50) of 3000 to 10000 nM.

`CC(C)(C)c1ccc(C(NC2CCCC2)c2ccc(Cl)c(=O)[nH]2)cc1` (stereo not shown) [Example 7-5, 6-[(4-tert-Butylphenyl)(cyclopentylamino)methyl]-3-chloropyridin-2(1H)-one] gave an EC50 of 3000 to 10000 nM.

The compound `CC(C)COCCc1ccc(/C(=C\[C@H]2CCC(=O)N2)c2ccc(Cl)c(=O)[nH]2)cc1` [Example 4-28, 3-Chloro-6-{(E)-1-{4-[2-(2-methylpropoxy)ethyl]phenyl}-2-[(2R)-5-oxopyrrolidin-2-yl]ethenyl}pyridin-2(1H)-one] displayed an EC50 of 500 to 3000 nM.

For `CCc1ccc(C(CC2CCCC2)c2ccc(SC)cc2)[nH]c1=O` (stereo not shown) [Example 2-6, 6-{2-Cyclopentyl-1-[4-(methylsulfanyl)phenyl]ethyl}-3-ethylpyridin-2(1H)-one], the EC50 is 500 to 3000 nM.

In turn, `O=C1CC[C@H](CC(c2ccc3c(c2)CCO3)c2ccc(C3CC3)c(=O)[nH]2)N1` (single isomer, unassigned) [Example 4-209] returned a 50% effective concentration (EC50) of 500 to 3000 nM.

In the case of `CC(C)(C)c1ccc(/C(=C\CCN2CCCC2=O)c2ccc(Cl)c(=O)[nH]2)cc1` [Example 6-27, 6-[(1E)-1-(4-tert-Butylphenyl)-4-(2-oxopyrrolidin-1-yl)but-1-en-1-yl]-3-chloropyridin-2(1H)-one], the EC50 is 500 to 3000 nM.

As for `Cc1cc(/C(=C\[C@H]2CCC(=O)N2)c2ccc(Cl)c(=O)[nH]2)ccc1S(=O)(=O)C1CC1` [Example 4-55, 3-Chloro-6-{(E)-1-[4-(cyclopropylsulfonyl)-3-methylphenyl]-2-[(2R)-5-oxopyrrolidin-2-yl]ethenyl}pyridin-2(1H)-one], the EC50 lay within 10 to 500 nM.

`O=C1CC[C@H](/C=C(\c2ccc(C(F)(F)F)cc2)c2ccc(CCCCO)c(=O)[nH]2)N1` [Example 4-200, 3-(4-Hydroxybutyl)-6-{(E)-2-[(2R)-5-oxopyrrolidin-2-yl]-1-[4-(trifluoromethyl)phenyl]ethenyl}pyridin-2(1H)-one]: the EC50 was 500 to 3000 nM.

Take `O=C(C1CC1)N1CC[C@H](/C=C(\c2ccc(Cl)cc2)c2ccc(C3CC3)c(=O)[nH]2)C1` [Example 4-78, 6-{(E)-1-(4-Chlorophenyl)-2-[(3R)-1-(cyclopropylcarbonyl)pyrrolidin-3-yl]ethenyl}-3-cyclopropylpyridin-2(1H)-one]: the EC50 fell in the range of 10 to 500 nM.

`NC(=O)c1ccc(/C(=C\[C@H]2CCC(=O)N2)c2ccc(Cl)c(=O)[nH]2)cc1` [Example 4-160, 4-{(E)-1-(5-Chloro-6-oxo-1,6-dihydropyridin-2-yl)-2-[(2R)-5-oxopyrrolidin-2-yl]ethenyl}benzamide] registered an EC50 of 3000 to 10000 nM.

`O=C1CC[C@H](/C=C(\c2ccc3c(c2)CCO3)c2ccc(C3CC3)c(=O)[nH]2)N1` [Example 4-123, 3-Cyclopropyl-6-{(E)-1-(2,3-dihydro-1-benzofuran-5-yl)-2-[(2R)-5-oxopyrrolidin-2-yl]ethenyl}pyridin-2(1H)-one] displayed an EC50 of 10 to 500 nM.

Take `CCNCCCOc1ccc(/C(=C\C2CCCC2)c2ccc(C3CC3)c(=O)[nH]2)cc1Cl` [Example 1-44, 6-[(E)-1-{3-Chloro-4-[3-(ethylamino)propoxy]phenyl}-2-cyclopentylethenyl]-3-cyclopropylpyridin-2(1H)-one]: the concentration giving a half-maximal response (EC50) was 500 to 3000 nM.

Turning to `CC(=O)NC/C=C(\c1ccc(C(C)(C)C)cc1)c1ccc(Cl)c(=O)[nH]1` [Example 6-35, N-[(2E)-3-(4-tert-Butylphenyl)-3-(5-chloro-6-oxo-1,6-dihydropyridin-2-yl)prop-2-en-1-yl]acetamide], the EC50 was in the range of 3000 to 10000 nM.

`O=c1[nH]c(C(OC2CCCC2)c2ccc(S(=O)(=O)C3CC3)cc2)ccc1C(F)(F)F` (stereo not shown) [Example 7-2, 6-{(Cyclopentyloxy)[4-(cyclopropylsulfonyl)phenyl]methyl}-3-(trifluoromethyl)pyridin-2(1H)-one] had an EC50 of 3000 to 10000 nM.

In the case of `CCN(CC)CCCOc1ccc(/C(=C\[C@H]2CCC(=O)C2)c2ccc(C(F)(F)F)c(=O)[nH]2)cc1Cl` [Example 1-83, 6-{(E)-1-{3-Chloro-4-[3-(diethylamino)propoxy]phenyl}-2-[(1S)-3-oxocyclopentyl]ethenyl}-3-(trifluoromethyl)pyridin-2(1H)-one], the EC50 fell in the range of 500 to 3000 nM.

`CC(C)Oc1ccc(/C(=C\[C@H]2CCC(=O)N2)c2ccc(C3CC3)c(=O)[nH]2)cc1F` [Example 4-275, 3-Cyclopropyl-6-{(E)-1-[3-fluoro-4-(propan-2-yloxy)phenyl]-2-[(2R)-5-oxopyrrolidin-2-yl]ethenyl}pyridin-2(1H)-one] yielded a concentration for a half-maximal effect (EC50) of 10 to 500 nM.

`CC(C)(C)c1ccc(/C(=C\COc2ccccc2)c2ccc(Cl)c(=O)[nH]2)cc1` [Example 6-10, 6-[(1E)-1-(4-tert-Butylphenyl)-3-phenoxyprop-1-en-1-yl]-3-chloropyridin-2(1H)-one] displayed an EC50 of 500 to 3000 nM.

Turning to `O=C1CC[C@H](/C=C(\c2ccc(OC(F)F)c(Cl)c2)c2ccc(C3CC3)c(=O)[nH]2)N1` [Example 4-281, 6-{(E)-1-[3-Chloro-4-(difluoromethoxy)phenyl]-2-[(2R)-5-oxopyrrolidin-2-yl]ethenyl}-3-cyclopropylpyridin-2(1H)-one], the EC50 lay within 10 to 500 nM.

As for `CC(C)(C)c1ccc(/C(=C\CN2CCCCC2=O)c2ccc(Cl)c(=O)[nH]2)cc1` [Example 6-4, 6-[(1E)-1-(4-tert-Butylphenyl)-3-(2-oxopiperidin-1-yl)prop-1-en-1-yl]-3-chloropyridin-2(1H)-one], the EC50 fell in the range of 500 to 3000 nM.

Consider `Cc1ccc(C(CC2CCCC2)c2ccc(S(=O)(=O)C3CC3)cc2)[nH]c1=O` (stereo not shown) [Example 2-3, 6-{2-Cyclopentyl-1-[4-(cyclopropylsulfonyl)phenyl]ethyl}-3-methylpyridin-2(1H)-one], for which the EC50 lay in the range of 10 to 500 nM.

The compound `Cc1cc(C(C[C@H]2CCC(=O)N2)c2ccc(C3CC3)c(=O)[nH]2)ccc1S(=O)(=O)C1CC1` (single isomer, unassigned) [Example 4-298] had an EC50 of 10 to 500 nM.

In the case of `CCN(CC)CCCOc1ccc(/C(=C\[C@H]2CCC(O)C2)c2ccc(C(F)(F)F)c(=O)[nH]2)cc1Cl` (stereo partly drawn) [Example 1-86, 6-{(E)-1-{3-Chloro-4-[3-(diethylamino)propoxy]phenyl}-2-[(1S)-3-hydroxycyclopentyl]ethenyl}-3-(trifluoromethyl)pyridin-2(1H)-one], the EC50 lay within 500 to 3000 nM.

`O=C1CC[C@H](/C=C(\c2ccc(OC3CC3)cc2)c2ccc(Cl)c(=O)[nH]2)N1` [Example 4-90, 3-Chloro-6-{(E)-1-[4-(cyclopropyloxy)phenyl]-2-[(2R)-5-oxopyrrolidin-2-yl]ethenyl}pyridin-2(1H)-one]: the half-maximal effective concentration (EC50) lay within 500 to 3000 nM.

Consider `CC(C)c1ccc([C@@H](C[C@H]2CCC(=O)N2)c2ccc(C3CC3)c(=O)[nH]2)cc1` [Example 4-80, 3-Cyclopropyl-6-{(1R)-2-[(2R)-5-oxopyrrolidin-2-yl]-1-[4-(propan-2-yl)phenyl]ethyl}pyridin-2(1H)-one], for which the EC50 fell in the range of 10 to 500 nM.

As to `CCC(=O)N1CC[C@H](/C=C(\c2ccc(C(C)(C)C)cc2)c2ccc(Cl)c(=O)[nH]2)C1` [Example 4-68, 6-{(E)-1-(4-tert-Butylphenyl)-2-[(3R)-1-propanoylpyrrolidin-3-yl]ethenyl}-3-chloropyridin-2(1H)-one], the concentration giving a half-maximal response (EC50) lay within 10 to 500 nM.

With `O=C1CC[C@H](/C=C(\c2ccc(C(F)(F)F)cc2)c2ccc(C(F)(F)F)c(=O)[nH]2)N1` [Example 4-259, 6-{(E)-2-[(2R)-5-Oxopyrrolidin-2-yl]-1-[4-(trifluoromethyl)phenyl]ethenyl}-3-(trifluoromethyl)pyridin-2(1H)-one], the EC50 was in the range of 500 to 3000 nM.

Compound `CCc1ccc(/C(=C/C2CCCC2)c2ccc(SCCCO)cc2)[nH]c1=O` [Example 1-12, 6-[(E)-2-Cyclopentyl-1-{4-[(3-hydroxypropyl)sulfanyl]phenyl}ethenyl]-3-ethylpyridin-2(1H)-one] gave an EC50 of 10 to 500 nM.

`CC(C)(C)c1ccc(/C(=C\CN2CCOC2=O)c2ccc(Cl)c(=O)[nH]2)cc1` [Example 6-2, 6-[(1E)-1-(4-tert-Butylphenyl)-3-(2-oxo-1,3-oxazolidin-3-yl)prop-1-en-1-yl]-3-chloropyridin-2(1H)-one] came in with an EC50 of 10 to 500 nM.

In turn, `CCS(=O)(=O)c1ccc(/C(=C\C2CCCC2)c2ccc(C)c(=O)[nH]2)cc1` [Example 1-10, 6-{(E)-2-Cyclopentyl-1-[4-(ethylsulfonyl)phenyl]ethenyl}-3-methylpyridin-2(1H)-one] came in with an EC50 of 10 to 500 nM.

As to `COc1ccc(/C(=C\C2CCOCC2)c2ccc(C(F)(F)F)c(=O)[nH]2)cc1Cl` [Example 1-54, 6-[(E)-1-(3-Chloro-4-methoxyphenyl)-2-(tetrahydro-2H-pyran-4-yl)ethenyl]-3-(trifluoromethyl)pyridin-2(1H)-one], the EC50 was in the range of 500 to 3000 nM.
